Here are results for 17 compounds from ChEMBL document CHEMBL1144172, “Discovery of novel series of benzoic acid derivatives containing biphenyl ether moiety as potent and selective human beta(3)-adrenergic receptor agonists: Part IV” (Bioorg Med Chem Lett, 2008).

The subject of assay [1] is CHO. Kind of assay: Selectivity for human cloned adrenergic beta-1 receptor over human cloned adrenergic beta3 receptor expressed in CHO cells. Format: cell-based.
Assay [2] deals with Beta-1 adrenergic receptor (Homo sapiens, UniProt P08588).
Sequence of Beta-1 adrenergic receptor (P08588 whole entry): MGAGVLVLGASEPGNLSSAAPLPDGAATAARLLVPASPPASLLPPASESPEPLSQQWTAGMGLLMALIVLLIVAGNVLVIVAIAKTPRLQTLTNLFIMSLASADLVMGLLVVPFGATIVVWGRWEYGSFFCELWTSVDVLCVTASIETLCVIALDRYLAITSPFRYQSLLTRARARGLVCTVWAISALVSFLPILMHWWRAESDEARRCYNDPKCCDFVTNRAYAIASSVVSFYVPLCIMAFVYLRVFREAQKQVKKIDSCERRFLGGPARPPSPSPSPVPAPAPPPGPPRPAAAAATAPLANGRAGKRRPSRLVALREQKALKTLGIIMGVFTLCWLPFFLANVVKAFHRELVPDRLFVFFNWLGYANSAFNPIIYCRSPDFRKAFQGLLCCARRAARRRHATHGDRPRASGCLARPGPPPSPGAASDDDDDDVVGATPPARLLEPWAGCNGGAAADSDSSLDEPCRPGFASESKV
Description: Agonist activity at human cloned adrenergic beta-1 receptor expressed in CHO cells assessed as cAMP accumulation
Assay [3] has as its target Beta-3 adrenergic receptor (Homo sapiens, UniProt P13945). Kind of assay: Agonist activity at human cloned adrenergic beta3 receptor expressed in CHO cells assessed as cAMP accumulation. Format: functional, cell-based.
The target of assay [4] is Beta-3 adrenergic receptor (Canis lupus familiaris) (UniProt O02662). Kind of assay: Agonist activity at dog cloned adrenergic beta3 receptor assessed as inhibition of carbachol-induced increase in intravesical pressure at 32 ug/kg, iv. Format: functional.
Sequence of Beta-3 adrenergic receptor (Canis lupus familiaris) (O02662 whole entry): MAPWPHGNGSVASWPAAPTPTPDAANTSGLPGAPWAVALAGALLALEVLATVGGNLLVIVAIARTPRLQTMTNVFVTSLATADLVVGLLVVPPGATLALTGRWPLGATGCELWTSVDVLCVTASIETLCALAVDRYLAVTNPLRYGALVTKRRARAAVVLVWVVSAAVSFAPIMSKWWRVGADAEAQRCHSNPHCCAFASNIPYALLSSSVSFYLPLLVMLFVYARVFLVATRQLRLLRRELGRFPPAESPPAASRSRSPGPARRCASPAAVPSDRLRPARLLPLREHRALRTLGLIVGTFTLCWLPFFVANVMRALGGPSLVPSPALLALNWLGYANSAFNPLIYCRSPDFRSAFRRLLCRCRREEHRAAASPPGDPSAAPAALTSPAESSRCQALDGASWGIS
Assay [5] concerns the target Beta-3 adrenergic receptor (Canis lupus familiaris, UniProt O02662). Nature of the assay: Agonist activity at dog cloned adrenergic beta3 receptor expressed in CHO cells assessed as cAMP accumulation. Format: functional, cell-based. (In general: Cyclic AMP is a second messenger, typically raised through Gs and lowered through Gi signalling.)
For assay [6], the target named is Beta-3 adrenergic receptor (Canis lupus familiaris) (UniProt O02662). Nature of the assay: Agonist activity at dog cloned adrenergic beta3 receptor assessed as inhibition of carbachol-induced increase in intravesical pressure at 10 ug/kg, iv. The format is functional.

A value given as a limit tells only on which side of the number the result lay.

Sequence of Beta-3 adrenergic receptor (Homo sapiens, UniProt P13945) (P13945 whole entry): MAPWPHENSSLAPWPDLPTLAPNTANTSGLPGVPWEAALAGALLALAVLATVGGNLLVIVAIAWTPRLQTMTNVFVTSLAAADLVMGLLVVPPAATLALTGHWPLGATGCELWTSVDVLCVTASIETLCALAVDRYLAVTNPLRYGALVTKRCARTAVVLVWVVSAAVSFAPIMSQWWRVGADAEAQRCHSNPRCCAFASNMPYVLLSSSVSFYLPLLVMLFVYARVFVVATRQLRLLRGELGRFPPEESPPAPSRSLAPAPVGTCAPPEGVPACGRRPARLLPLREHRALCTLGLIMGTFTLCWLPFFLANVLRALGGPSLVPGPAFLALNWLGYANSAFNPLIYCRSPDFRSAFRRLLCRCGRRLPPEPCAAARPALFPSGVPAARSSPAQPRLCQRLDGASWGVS
Sequence of Beta-3 adrenergic receptor (Canis lupus familiaris, UniProt O02662) (O02662 whole entry): as the sequence (O02662 whole entry) above

The term EC50 denotes the concentration needed to bring the measured effect to its halfway point. For the compound `CC(=O)Nc1ccc(Oc2cccc(CCNC[C@H](O)c3cccnc3)c2)cc1C(=O)O`, the Ratio EC50 in assay [1] was 16. Moreover, the concentration for a half-maximal effect (EC50) in assay [2] was found to be 0.19 µM; in assay [3], 0.012 µM.
The corresponding values for `O=C(Nc1ccc(Oc2cccc(CCNC[C@H](O)c3cccc(Cl)c3)c2)cc1C(=O)O)c1ccccc1` are 15, 0.13 µM and 0.0086 µM.
For `O=C(O)c1cc(Oc2cccc(CCNC[C@H](O)c3cccc(Cl)c3)c2)ccc1F` the same measures were 15, 0.14 µM and 0.0094 µM.
In the case of `Cc1ccc(Oc2cccc(CCNC[C@H](O)c3cccc(Cl)c3)c2)cc1C(=O)O`, the Ratio EC50 in assay [1] amounted to 42. Also, the values for the EC50 in assay [2] and in assay [3] were 0.55 µM and 0.013 µM, respectively.
For `C[C@H](Cc1cccc(Oc2cccc(C(=O)O)c2)c1)NC[C@H](O)c1cccc(Cl)c1` the same measures were 15, 0.028 µM and 0.0019 µM.
As a reminder, the inhibition is the share of the control response that was lost under treatment. As to `O=C(O)c1cc(Oc2cccc(CCNC[C@H](O)c3cccc(Cl)c3)c2)ccc1N1CCCC1=O`, in assay [4], the inhibition came to 84%. The Ratio EC50 in assay [1] is more than 152. Also, the EC50 in assay [2] is more than 1 µM; in assay [5], 0.0019 µM; in assay [3] it was 0.0066 µM.
Consider `O=C(O)c1cc(Oc2cccc(CCNC[C@H](O)c3cccnc3)c2)ccc1F`, for which the Ratio EC50 in assay [1] stood at 27. For the same compound, the EC50 in assay [2] came out at 0.84 µM; in assay [3] it was 0.031 µM.
For `O=C(O)c1ccc(Oc2cccc(CCNC[C@H](O)c3cccc(Cl)c3)c2)cc1`, the half-maximal effective concentration (EC50) in assay [2] was more than 0.1 µM; in assay [3], 0.06 µM.
For `CC(=O)Nc1ccc(Oc2cccc(CCNC[C@H](O)c3cccc(Cl)c3)c2)cc1C(=O)O`, in assay [1], the Ratio EC50 came to 53. Also, the concentration giving a half-maximal response (EC50) came out at 0.38 µM in assay [2] and 0.0072 µM in assay [3].
For `CC(=O)Nc1cc(Oc2cccc(CCNC[C@H](O)c3cccc(Cl)c3)c2)cc(C(=O)O)c1` the same measures were 37, 0.24 µM and 0.0065 µM.
As to `O=C(O)c1cc(NC(=O)c2ccccc2)cc(Oc2cccc(CCNC[C@H](O)c3cccc(Cl)c3)c2)c1`, the Ratio EC50 in assay [1] turned out to be 9. The EC50 in assay [2] was determined as 0.19 µM; in assay [3] it was 0.021 µM.
Regarding `CC(C)Oc1ccc(Oc2cccc(CCNC[C@H](O)c3cccc(Cl)c3)c2)cc1C(=O)O`, the Ratio EC50 in assay [1] worked out at 238. Also, the EC50 in assay [2] was found to be 0.81 µM; in assay [5] it was 0.0032 µM; in assay [3] it was 0.0034 µM. The inhibition in assay [6] came out at 43%.
Take `O=C(O)c1cccc(Oc2cccc(CCNC[C@H](O)c3cccc(Cl)c3)c2)c1`: the Ratio EC50 in assay [1] was more than 7.1. Further, the EC50 in assay [2] was more than 0.1 µM; in assay [3], 0.014 µM.
Regarding `CC(C)(C)C(=O)Nc1ccc(Oc2cccc(CCNC[C@H](O)c3cccc(Cl)c3)c2)cc1C(=O)O`, the inhibition in assay [4] was determined as 30%. For the same compound, the Ratio EC50 in assay [1] is 135. The EC50 in assay [2] is 0.62 µM; in assay [5] it was 0.0016 µM; in assay [3] it was 0.0046 µM.
With `O=C(O)c1cc(Oc2cccc(CCNC[C@H](O)c3cccc(Cl)c3)c2)ccc1Cl`, the Ratio EC50 in assay [1] is 6.7. In addition, the EC50 in assay [2] came to 0.064 µM; in assay [3] it was 0.0095 µM.
The corresponding values for `COc1ccc(Oc2cccc(CCNC[C@H](O)c3cccc(Cl)c3)c2)cc1C(=O)O` are 46, 0.51 µM and 0.011 µM.
For `COc1ccc(Oc2cccc(CCNC[C@H](O)c3cccnc3)c2)cc1C(=O)O` the same measures were 12, 0.69 µM and 0.056 µM.
